Laboratory results as given in publication PMC6476176 (Ultrasound in medicine & biology, 2018).
Where two headings read alike, the source gives them in different places.

Legend:
[1] = cited from earlier work
[2] = Plasma T-20 concentration and pharmacokinetics in porcine model; type: in vivo, Yorkshire pigs; conditions: Yorkshire, pig, sc, 90 mg
[3] = Histological analysis of skin samples; type: in vivo, Yorkshire pigs; conditions: pig
[4] = T-20 subcutaneous injection twice daily 29 days, n=12

For enfuvirtide, the “AUC∞” value ([1]; human, in vivo) is listed as 55.8 (22%) μg·h/mL, the Cmax ([1]; human, in vivo) is listed as 4.59 (32%) μg/mL and the “Tmax humans (median)” value ([1]; human, in vivo) is listed as 6.9 h. For the same substance, the “Tmax humans (range)” value ([1]; human, in vivo) was 3 to 12 h, the tmax ([1]; human, in vivo) was 6.92 (36%) h and the t½ ([1]; human, in vivo) was 3.80 (15%) h. The “typical human plasma Ctrough” value ([1]; human, ref Usa, 2012) was 3300 ± 1600 ng/mL, the CI ([1]; in vivo) was 1.68 (22%) L/h and the AUC(0-inf) [2] was 43300 ng·h/mL. The Cmax [2] was 6310 ng/mL, the half-life [2] was 3.97 h and the tmax [2] was 2.5 h. For the same substance, the “Skin irritation: Major, number of Subjects” value ([3]; in vivo) was 1, the “Skin irritation: Minor, number of Subjects” value ([3]; in vivo) was 4 and the “Skin irritation: None, number of Subjects” value ([3]; in vivo) was 7. The “Skin irritation: Similar to Eczema, number of Subjects” value ([3]; in vivo) was 1, the “Skin irritation: Major+ Necrosis, number of Subjects” value ([3]; in vivo, sc) was 3 and the “Skin irritation: Major, number of Subjects” value [3, 4] was 3. The “Skin irritation: Minor, number of Subjects” value [3, 4] was 3, the “Skin irritation: None, number of Subjects” value [3, 4] was 2 and the “Skin irritation: Similar to Eczema, number of Subjects” value [3, 4] was 1.
